Measurements from PMC10575874, “Structural insights into the allosteric inhibition of P2X4 receptors” (Nature Communications, 2023).

T1: human P2X3 receptor, P2X4-like gain-of-function mutant (Homo sapiens, UniProt P56373, M75W/T82I/V98I)
T1 construct: gene P2RX3
T1 sequence (P56373 1-397 M75W/T82I/V98I): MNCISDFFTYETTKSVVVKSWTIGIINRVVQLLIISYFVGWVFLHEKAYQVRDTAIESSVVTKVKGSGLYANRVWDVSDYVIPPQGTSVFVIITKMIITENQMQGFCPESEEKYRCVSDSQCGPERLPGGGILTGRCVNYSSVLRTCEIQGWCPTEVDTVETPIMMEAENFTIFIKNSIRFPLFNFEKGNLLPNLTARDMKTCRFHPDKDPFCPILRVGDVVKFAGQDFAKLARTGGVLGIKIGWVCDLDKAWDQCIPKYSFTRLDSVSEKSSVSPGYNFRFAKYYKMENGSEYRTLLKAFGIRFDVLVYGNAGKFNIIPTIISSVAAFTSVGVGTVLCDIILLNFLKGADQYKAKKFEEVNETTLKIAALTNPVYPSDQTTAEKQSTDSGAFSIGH

T2: zebrafish P2X4 receptor (zfP2X4) (Danio rerio, UniProt F8W463)
T2 construct: gene p2rx4a; residues 9-382 (GenBank AAH66495.1), trimer in PMAL-C8 amphipol
T2 sequence (F8W463 9-382): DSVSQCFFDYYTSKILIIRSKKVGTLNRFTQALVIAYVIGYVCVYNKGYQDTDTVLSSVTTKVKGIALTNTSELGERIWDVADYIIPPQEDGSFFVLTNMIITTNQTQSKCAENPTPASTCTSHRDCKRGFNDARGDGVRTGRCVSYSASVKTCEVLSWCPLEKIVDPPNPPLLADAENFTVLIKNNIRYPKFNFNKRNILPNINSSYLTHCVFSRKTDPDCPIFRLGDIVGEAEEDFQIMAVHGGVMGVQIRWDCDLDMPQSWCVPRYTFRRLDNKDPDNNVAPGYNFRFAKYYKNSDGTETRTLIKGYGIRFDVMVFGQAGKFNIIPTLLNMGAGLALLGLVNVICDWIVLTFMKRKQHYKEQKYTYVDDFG


Columns and labels:
[1] = molecular target: T1, human P2X3 receptor, P2X4-like gain-of-function mutant; test: patch clamp of ATP-evoked currents in HEK293 cells at […] BX430; assay type: cell-based
[2] = molecular target: T2, zebrafish P2X4 receptor (zfP2X4); test: cryo-EM structure ([…] Å); whole-cell patch clamp in HEK293 cells
[3] = molecular target: the molecule itself; test: cryo-EM structure; purified zfP2X4 in PMAL-C8 amphipol, incubated with 50 uM BX430 or 125 uM BAY-1797 for 1 h; C3 symmetry imposed, also processed with C1 symmetry

Row | Molecule | patch clamp of ATP-evoked currents in HEK293 cells at 30 and 100 μM BX430 [1] | IC50 [2] | stoichiometry N [3]
1 | CC(C)c1cc(Br)c(NC(=O)Nc2cccnc2)c(Br)c1 [BX430, 1-(2,6-dibromo-4-isopropylphenyl)-3-(3-pyridyl)urea] | the P2X4-like mutant of human P2X3 (M75W/T82I/V98I) conferred sensitivity to BX430 | BX430-bound zfP2X4 (EMD-36668) (PDB 8JV5) | 
2 | zebrafish P2X4 receptor (residues 9-382) (receptor, UniProt F8W463 9-382, looked up, P2X4 receptor, zebrafish (Danio rerio), GenBank AAH66495.1, residues 9-382 (truncation of the N-terminal 8 and the C-terminal 7 residues); Homotrimer; A C-terminal HRV 3C site stood before TGP and the Twin-Strep-tag; residues of the site may remain after cleavage; also called zfP2X4; source: Sf9 (baculovirus), purified (Strep-Tactin, HRV 3C cleavage, SEC), reconstituted into PMAL-C8 amphipol; not …) DSVSQCFFDYYTSKILIIRSKKVGTLNRFTQALVIAYVIGYVCVYNKGYQDTDTVLSSVTTKVKGIALTNTSELGERIWDVADYIIPPQEDGSFFVLTNMIITTNQTQSKCAENPTPASTCTSHRDCKRGFNDARGDGVRTGRCVSYSASVKTCEVLSWCPLEKIVDPPNPPLLADAENFTVLIKNNIRYPKFNFNKRNILPNINSSYLTHCVFSRKTDPDCPIFRLGDIVGEAEEDFQIMAVHGGVMGVQIRWDCDLDMPQSWCVPRYTFRRLDNKDPDNNVAPGYNFRFAKYYKNSDGTETRTLIKGYGIRFDVMVFGQAGKFNIIPTLLNMGAGLALLGLVNVICDWIVLTFMKRKQHYKEQKYTYVDDFG |  |  | 3
